Read-outs that look alike come from different tables or passages of the source.
Tests used:
CYP 3A4 = CYP 3A4 (Homo sapiens (Human), UniProt P08684); assay: CYP450 enzyme inhibition study, CYP 3A4; type: in vitro ADME; settings: human liver microsomes; read-out: Subtypes IC50 3A4
Description: (§1) 500 μL of a final incubation system contains 50 μL of human liver microsomes (protein concentration: 0.2 mg/mL, Corning), 1 μL of mixed CYP450 specific substrates (CYP1A2, CYP 2B6, CYP 2C9, CYP2C19, CYP 2D6, and CYP 3A4), 398 μL PBS buffer (pH7.4), 1 μL specific positive inhibitor (positive control group) or the test compound (formulated with acetonitrile), and 50 μL NADPH+MgCl2. Duplicate incubation systems of 0.5 mL each were formulated for each CYP450 subtype. A total volume of 450 μL of a uniformly mixed solution of the substrate and the enzyme was formulated in each tube, and the solution and NADPH were pre-incubated at 37° C. for 5 minutes, respectively. Then 50 μL of the mixed solution of NADPH+MgCl2 was added for reaction. 50 μL of the reaction solution was taken out at 30 minutes, and the reaction was terminated with 300 μL of ice acetonitrile containing an internal standard. In addition, two control groups of 500 μL each without NADPH were prepared in parallel as a negative control group.
(§2) Sample pre-treatment: To 50 μL of the incubated sample was added 300 μL of ice acetonitrile containing an internal standard, and then precipitated. After vortexing for 5 minutes, the sample was centrifugated (12000 rpm, 4° C.) for 10 minutes. 75 μL of the supernatant was pipetted, and 75 μL of ultrapure water was added thereto for dilution and mixed uniformly. […]

CYP2C19 = CYP2C19 (Homo sapiens (Human), UniProt P33261); assay: CYP450 enzyme inhibition study, CYP2C19; type: in vitro ADME
Sequence of CYP2C19 (P33261 whole entry): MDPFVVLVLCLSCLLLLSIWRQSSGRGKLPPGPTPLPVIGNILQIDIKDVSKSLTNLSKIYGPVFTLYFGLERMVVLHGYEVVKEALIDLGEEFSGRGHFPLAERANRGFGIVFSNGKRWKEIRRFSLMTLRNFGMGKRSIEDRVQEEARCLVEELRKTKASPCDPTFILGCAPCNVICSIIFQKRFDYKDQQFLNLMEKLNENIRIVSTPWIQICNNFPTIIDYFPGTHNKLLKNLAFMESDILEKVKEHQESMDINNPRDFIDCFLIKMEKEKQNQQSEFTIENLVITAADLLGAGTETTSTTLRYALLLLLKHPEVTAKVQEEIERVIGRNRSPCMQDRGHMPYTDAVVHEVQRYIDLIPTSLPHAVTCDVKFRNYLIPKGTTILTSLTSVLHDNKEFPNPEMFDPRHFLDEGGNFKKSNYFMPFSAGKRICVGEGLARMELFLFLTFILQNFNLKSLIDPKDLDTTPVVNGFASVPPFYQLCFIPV
Description: as §1, §2

CYP 2C9 = CYP 2C9 (Homo sapiens (Human), UniProt P11712); assay: CYP450 enzyme inhibition study, CYP 2C9; type: in vitro ADME; settings: human liver microsomes; read-out: Subtypes IC50 2C9
Sequence of CYP 2C9 (P11712 whole entry): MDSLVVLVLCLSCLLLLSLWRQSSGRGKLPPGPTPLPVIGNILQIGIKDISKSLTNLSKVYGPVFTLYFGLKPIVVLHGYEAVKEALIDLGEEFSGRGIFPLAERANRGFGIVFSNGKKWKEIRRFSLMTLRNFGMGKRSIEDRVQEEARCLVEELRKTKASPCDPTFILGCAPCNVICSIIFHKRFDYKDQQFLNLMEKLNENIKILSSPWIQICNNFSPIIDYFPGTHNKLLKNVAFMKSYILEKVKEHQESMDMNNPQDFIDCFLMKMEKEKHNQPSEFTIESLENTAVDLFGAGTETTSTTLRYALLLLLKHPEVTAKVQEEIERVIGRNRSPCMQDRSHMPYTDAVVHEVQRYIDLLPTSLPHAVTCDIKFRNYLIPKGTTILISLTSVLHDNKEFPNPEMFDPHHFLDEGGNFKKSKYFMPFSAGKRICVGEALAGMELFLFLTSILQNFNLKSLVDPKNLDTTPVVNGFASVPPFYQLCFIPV
Description: as §1, §2

CYP1A2 = CYP1A2 (Homo sapiens (Human), UniProt P05177); assay: CYP450 enzyme inhibition study, CYP1A2; type: in vitro ADME
Sequence of CYP1A2 (P05177 whole entry): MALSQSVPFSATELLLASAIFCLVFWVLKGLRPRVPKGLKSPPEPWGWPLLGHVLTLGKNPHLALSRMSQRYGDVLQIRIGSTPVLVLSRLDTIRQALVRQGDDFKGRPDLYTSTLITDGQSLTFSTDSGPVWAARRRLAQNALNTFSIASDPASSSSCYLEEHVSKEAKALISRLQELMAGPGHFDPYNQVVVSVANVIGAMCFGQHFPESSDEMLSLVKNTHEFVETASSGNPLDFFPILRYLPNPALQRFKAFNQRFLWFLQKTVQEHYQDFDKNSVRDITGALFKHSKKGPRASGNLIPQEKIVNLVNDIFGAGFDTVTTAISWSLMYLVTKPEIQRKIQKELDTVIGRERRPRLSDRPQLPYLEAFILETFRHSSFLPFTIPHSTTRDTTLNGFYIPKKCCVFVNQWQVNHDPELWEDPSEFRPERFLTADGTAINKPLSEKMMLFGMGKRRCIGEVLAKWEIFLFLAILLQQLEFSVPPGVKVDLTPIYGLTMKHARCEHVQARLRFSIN
Description: as §1, §2

[1] = Plasma protein binding assay, dog plasma; type: in vitro ADME
Description: Formulation of plasma sample: 495 μL of blank plasmas of the corresponding species (mouse, rat, dog, monkey, and human) were drawn respectively, and thereto was added 5 μL of the corresponding test compound solution or positive control to give plasma sample solutions having a plasma drug concentration of the compound of 1 μM, and 10 μM, respectively (formulated with acetonitrile).
The pre-treated dialysis membrane was placed in a high-throughput equilibrium dialysis device, and 100 μL of the plasma sample solution and PBS buffer solution were drawn and added respectively to both sides of the dialysis membrane (sample side and buffer side) (n=3). After the equilibration device was sealed with a film, it was incubated at 37° C. overnight (100 rpm). After dialysis equilibrium was reached, 50 μL samples were drawn from the sample side and the buffer side, respectively, and the reaction was terminated by adding ice acetonitrile containing an internal standard.
as §2, with “plasma-side” for “incubated”, “450” for “300”, “uniformly. 1 μL of the resulting solution was injected for analysis.” for “uniformly.”

[2] = Stability of liver microsomes in vitro, rat; type: in vitro ADME
Description: 300 μL of a final incubation system contains 30 μL of liver microsomes (protein concentration: 0.15 mg/mL, Corning), 30 μL NADPH+MgCl2, 3 μL substrate (formulated with acetonitrile), and 237 μL PBS buffer. Duplicate incubation systems of 0.3 mL each were formulated for each species. A total volume of 270 μL of a uniformly mixed solution of the substrate and the enzyme was formulated in each tube, the solution and NADPH were pre-incubated at 37° C. for 5 minutes, respectively. Then 30 μL of the mixed solution of NADPH+MgCl2 was added for reaction. 50 μL of the reaction solution was taken out at 0, 10, 30, and 60 mins, and the reaction was terminated with 300 μL of ice acetonitrile containing an internal standard.
Sample pre-treatment: To 50 μL of the incubated sample was added 300 μL of ice acetonitrile containing diazepam as an internal standard and then precipitated. After vortexing for 5 minutes, the sample was centrifugated (12000 rpm, 4° C.) for 10 minutes. 75 μL of the supernatant was pipetted into a 96-well plate, and then diluted with 75 μL ultrapure water and mixed uniformly. 0.5 μL of the resulting solution was injected and analyzed by LC-MS/MS.

HBV DNA in serum = assay: Antiviral effect evaluation in AAV mouse model (rAAV8-1.3HBV); type: in vivo, C57BL/6 mice; settings: for Reduction levels (log10) of HBV DNA in serum, Day 28: Day 28 (1 week after administration suspended)
Description: 6-8 week old male C57BL/6 mice (Shanghai Lingchang Biotechnology Co., Ltd.) were injected with rAAV8-1.3HBV virus (Beijing FivePlus Gene Technology Ltd., adr subtype) at tail vein at a dose of 1×10^11 vg. Blood was collected from the orbits of the mice on week 2 and 4 after the virus injection. The serum was separated, and the expression levels of HBeAg and HBsAg in the serum and the HBV DNA copy number were detected to evaluate whether the model was successfully established. According to the results of quantitative detection of serological HBeAg, HBsAg and HBV DNA, the mice having HBV DNA expression level greater than 1×10^4 IU/mL, HBeAg expression level greater than 1×10^3 NCU/mL and HBsAg expression level greater than 1×10^3 ng/mL were selected. The mice were grouped into a blank control group, a vehicle control group, and a test substance group. The mice in each group were continuously administered intragastrically once daily for 3 weeks and then the administration was suspended for 1 week. During the experiment, blood was collected from the orbits every other week, serum was separated, and the DNA content was detected by fluorescent quantitative PCR method.

[3] = In vivo pharmacokinetics (PK) study in rats; parameters: species or system SD rats; settings: for half-life: SD, in vivo; for AUC(0-t): read-out: AUC(0-48 h)
[4] = rat, plasma, SD rats, IV 5 mg/kg
[5] = rat, plasma, SD rats, PO 10 mg/kg

Sequence of CYP 3A4 (P08684 whole entry): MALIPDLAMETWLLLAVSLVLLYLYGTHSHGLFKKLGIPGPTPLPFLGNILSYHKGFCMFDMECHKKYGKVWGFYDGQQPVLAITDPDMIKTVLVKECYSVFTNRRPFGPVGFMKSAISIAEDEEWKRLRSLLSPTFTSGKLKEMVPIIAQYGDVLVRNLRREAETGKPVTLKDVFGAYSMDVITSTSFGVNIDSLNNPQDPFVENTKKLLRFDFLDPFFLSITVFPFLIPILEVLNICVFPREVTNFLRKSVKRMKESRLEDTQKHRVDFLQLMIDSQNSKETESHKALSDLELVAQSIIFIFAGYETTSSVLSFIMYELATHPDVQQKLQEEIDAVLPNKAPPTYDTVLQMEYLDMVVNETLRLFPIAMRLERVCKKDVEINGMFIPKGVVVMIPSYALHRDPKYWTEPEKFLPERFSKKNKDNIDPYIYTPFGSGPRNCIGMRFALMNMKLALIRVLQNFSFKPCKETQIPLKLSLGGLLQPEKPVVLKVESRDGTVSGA

With `Cc1[nH]c(C(=O)C(=O)N[C@@H](C)C(F)(F)F)c(C)c1C(=O)Nc1ccc(F)c(C#N)c1` [Example 1, (S)—N-(3-cyano-4-fluorophenyl)-2,4-dimethyl-5-(2-oxo-2-((1,1,1-trifluoroprop-2-yl)amino)acetyl)-1H-pyrrole-3-carboxamide] the IC50 (CYP 3A4) was greater than 200 µM, the IC50 (CYP2C19) was 20 µM and the IC50 (CYP 2C9) was greater than 200 µM. For the same compound, the IC50 (CYP1A2) was 49 µM, the “Binding rate (%) Dog” value ([1]; 1 μM) was 94.0% and the “Binding rate (%) Dog” value ([1]; 10 μM) was 93.9%. The “Remaining (%) of rat liver microsomes at 60 min” value [2] was 99%, the “Reduction levels (log10) of HBV DNA in serum, Day 7” value (HBV DNA in serum; 1 mpk intragastric once daily) was 2.49 log10 and the “Reduction levels (log10) of HBV DNA in serum, Day 14” value (HBV DNA in serum; 1 mpk intragastric once daily) was 3.41 log10. For the same compound, the “Reduction levels (log10) of HBV DNA in serum, Day 21” value (HBV DNA in serum; 1 mpk intragastric once daily) was 3.65 log10, the “Reduction levels (log10) of HBV DNA in serum, Day 28” value (HBV DNA in serum; 1 mpk) was 3.25 log10 and the “Reduction levels (log10) of HBV DNA in serum, Day 7” value (HBV DNA in serum; 10 mpk intragastric once daily) was 2.67 log10. The “Reduction levels (log10) of HBV DNA in serum, Day 14” value (HBV DNA in serum; 10 mpk intragastric once daily) was 3.80 log10, the “Reduction levels (log10) of HBV DNA in serum, Day 21” value (HBV DNA in serum; 10 mpk intragastric once daily) was 4.30 log10 and the “Reduction levels (log10) of HBV DNA in serum, Day 28” value (HBV DNA in serum; 10 mpk) was 3.50 log10. It also gave an F ([3]; SD rats, PO 10 mg/kg vs IV 5 mg/kg) of 100%, a half-life ([3]; rat, iv, 5 mg/kg) of 52.8 h and a half-life ([3]; rat, po, 10 mg/kg) of 45.6 h. It also gave an AUC(0-inf) [3, 4] of 148 µg·h/mL, a Cmax [3, 4] of 3.51 µg/mL and a clearance [3, 4] of 0.03 L/h/kg. It also gave an AUC(0-t) [3, 4] of 127 µg·h/mL, a Vd ([3]; rat, plasma, SD rats, IV 5 mg/kg, read-out: Vz) of 2.58 L/kg and an AUC(0-inf) [3, 5] of 284 µg·h/mL. The Cmax [3, 5] was 4.11 µg/mL and the AUC(0-t) [3, 5] was 254 µg·h/mL.
